Like-named read-outs stand apart in the source and are kept apart here.
How the values were obtained:
[1] = molecular target: p38-MK2 (Homo sapiens, UniProt P49137+Q16539); conditions: patients with rheumatoid arthritis, preliminary clinical trial results; cited from earlier work
[2] = molecular target: T1, p38α/MK2 (Homo sapiens, UniProt P49137+Q16539); test: Inhibition of p38α/MK2 enzyme activity (TR-FRET, ULight-CREBtide); type: biochemical; conditions: for IC50: 0.06 nM p38a, 1.2 nM MK2, 25 μM ATP, read-out: p38/MK2 IC50; for Selectivity ratio (p38 IC50 / p38/MK2 IC50): selectivity ratio p38 IC50 over p38/MK2 IC50
T1 construct: purchased R & D systems (p38 alpha); Thermo (MK2) 5477-KS-010; PV3316
T1 sequence (Q16539 whole entry): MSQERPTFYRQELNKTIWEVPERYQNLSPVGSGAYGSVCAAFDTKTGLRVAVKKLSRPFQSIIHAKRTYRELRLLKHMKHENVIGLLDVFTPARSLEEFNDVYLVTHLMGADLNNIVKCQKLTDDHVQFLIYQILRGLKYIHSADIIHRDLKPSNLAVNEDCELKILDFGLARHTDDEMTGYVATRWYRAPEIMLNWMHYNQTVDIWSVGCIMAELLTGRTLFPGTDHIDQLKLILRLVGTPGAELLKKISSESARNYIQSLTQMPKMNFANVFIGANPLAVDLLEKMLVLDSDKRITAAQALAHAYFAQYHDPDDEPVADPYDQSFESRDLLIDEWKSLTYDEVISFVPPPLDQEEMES
T1 sequence (P49137 whole entry): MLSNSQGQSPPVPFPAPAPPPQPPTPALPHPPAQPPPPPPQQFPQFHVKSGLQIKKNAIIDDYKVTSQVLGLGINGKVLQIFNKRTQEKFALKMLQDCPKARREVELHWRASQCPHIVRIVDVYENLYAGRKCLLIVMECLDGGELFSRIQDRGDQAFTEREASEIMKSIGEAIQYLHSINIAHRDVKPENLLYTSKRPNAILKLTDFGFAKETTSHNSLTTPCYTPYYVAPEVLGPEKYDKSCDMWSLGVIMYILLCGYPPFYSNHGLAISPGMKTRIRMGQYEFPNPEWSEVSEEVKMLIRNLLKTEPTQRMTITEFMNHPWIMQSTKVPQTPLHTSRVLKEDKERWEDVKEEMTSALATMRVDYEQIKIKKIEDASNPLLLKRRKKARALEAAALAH
Method: (§1) 50 nM ULight-CREBtide and 25 μM ATP (ATP Solution) were added, and the mixture was reacted at room temperature for 1.5 hours. An equal volume of a detection and termination mixed solution (1×LANCE detection buffer containing 20 mM EDTA and 2 nM Europium-anti-phospho-CREB) was added, the mixture was mixed until uniform and centrifuged, a plate sealing film was attached, and a reaction was performed at room temperature for 1 hour. TR-FRET program of the EnVision instrument was used to read the plate, and the fluorescence value of each well was detected at 665 nm/615 nm.
(§2) Calculation was performed on the raw data (665 nm/615 nm reading ratio) according to the following formula to obtain the inhibition rate. Inhibition rate %=[(mean value in positive control well−value in sample well)/(mean value in positive control well−mean value in negative control well)]×100, wherein the positive control well was a reaction well without a compound […], and the negative control well was a reaction wells without an enzyme.
(§3) Log(inhibitor) vs. response−Variable slope (four parameters) in GraphPad Prism 6 was used for fitting equation analysis of the compound concentration and the corresponding inhibition rate, and the curve was fitted to obtain the IC50 value of the compound.
(§4) The fitting calculation equation was Y=Bottom+(Top−Bottom)/(1+10^((Log IC50−X)*HillSlope)).

[3] = system: TNF-α in U937 cells; test: Inhibition of the expression level of TNF-α in LPS-stimulated U937 cells (ELISA); type: cell-based; conditions: Homo sapiens, U-937; PMA-differentiated U937, 10 ng/ml LPS 4 hours; read-out: U937 cell activity test TNF-α IC50
Method: U937 cells were treated with 20 ng/ml PMA for differentiation overnight, and after replacement with a fresh culture medium, the U937 cells were rested overnight. After differentiation, the U937 cells were digested and counted, and 50,000 cells per well were seeded in a 96-well plate until the cells adhered to the wall. A compound concentration gradient was prepared, the cells were pretreated with the compound for 1 hour (the highest final concentration of the compound was 1 μM, diluted in 3-fold concentration gradient), and 10 ng/ml LPS (Lipopolysaccharides from Escherichia coli O111:B4) was added for stimulation for 4 hours. Thereafter, the culture supernatant was collected by centrifugation and used for subsequent ELISA to detect the concentration of TNF-α in the supernatant. The concentration of TNF-α was detected according to the standard steps provided by the ELISA kit manufacturer.
A standard curve was plotted by a linear regression method from a TNF-α standard, and the concentration of TNF-α in a sample was derived by conversion according to the standard curve.
(§5) Calculation of inhibition rate: Inhibition rate %=[(mean value of TNF-α concentration in positive control well−mean value of TNF-α concentration in sample well)/(mean value of TNF-α concentration in positive control well−mean value of TNF-α concentration in negative control well)]×100%, wherein the positive control well was a well without a compound (DMSO-treated well), and the negative control well was a culture medium well.
as §3, with “Dose response curve fitting: Log(inhibitor)” for “Log(inhibitor)”, “compound. The fitting calculation equation was Y=Bottom+(Top−Bottom)/(1+10^((Log IC50−X)*HillSlope)).” for “compound.”

[4] = system: p-Hsp27 in U937 cells; test: Inhibition of p-Hsp27 in LPS-stimulated U937 cells (ELISA); type: cell-based; conditions: Homo sapiens, U-937; PMA-differentiated U937, 10 ng/ml LPS 0.5 hours; read-out: U937 cell activity test p-HSP27 IC50
Method: U937 cells were treated with 20 ng/ml PMA for differentiation overnight, and after replacement with a fresh culture medium, the U937 cells were rested overnight. After differentiation, the U937 cell were digested and counted, and 25,000 cells per well were seeded in a 96-well plate until the cells adhered to the wall. A compound concentration gradient was prepared, the cells were pretreated with the compound for 1 hour (the highest final concentration of the compound was 1 μM, diluted in 3-fold concentration gradient), and 10 ng/ml LPS (Lipopolysaccharides from Escherichia coli O111:B4) was added for stimulation for 0.5 hours. After the cells were washed with PBS, the cells were lysed with a lysis solution. p-Hsp27 in the cell lysate was detected by using Phospho-HSP27 (S78/S82) DuoSet IC ELISA kit. For specific steps, reference could be made to the standard steps provided by the kit manufacturer.
as §5, with “of p-Hsp27” for “of”, “of p-Hsp27” for “of TNF-α concentration”, “a well without LPS stimulation.” for “a culture medium well.”
Dose response curve fitting: Log(inhibitor) vs. response−Variable slope (four parameters) in GraphPad Prism 6 was used for fitting equation analysis of the compound concentration and the corresponding inhibition rate, and the curve was fitted to obtain the IC50 value of the compound.
as §4

[5] = Pharmacokinetic assay in SD rats (PO administration); type: in vivo; conditions: male, Sprague-Dawley (SD), rat, plasma; for AUC(0-inf): read-out: Area under the curve AUC0-∞; for half-life: read-out: Half-life t1/2 (converted); for MRT: read-out: Mean residence time MRT; for Cmax: read-out: Plasma concentration Cmax; for Tmax: read-out: Time to peak tmax
Method: SD rats were used as test animals to study the pharmacokinetic behavior of the compounds of the present invention in the rat body (plasma) after oral administration at a dose of 5 mg/kg or 2 mg/kg and intravenous administration at a dose of 1 mg/kg.
3 SD rats/group, male, from Shanghai Jiesijie Experimental Animal Co., Ltd., animal production license number (SCXK (Shanghai) 2013-0006 N0.311620400001794).
PO, 10% solutol HS15 was dissolved by ultrasound and prepared into a clear solution or homogeneous suspension.
3 SD rats/group, male; After fasting overnight, the rats were administered p.o. at a dose of 5 mg/kg or 2 mg/kg with a dosage volume of 10 mL/kg and i.v. at a dose 1 mg/kg with a dosage volume of 5 mL/kg, respectively.
At 0.25, 0.5, 1, 2, 4, 6, 8, and 24 h after oral administration in the rats and at 0.083, 0.25, 0.5, 1, 2, 4, 6, 8, and 24 h after intravenous administration in the rats, 0.2 mL of blood was collected from the jugular vein, placed in an EDTA-K2 test tube, centrifuged at 4° C. at 6000 rpm for 6 min to separate plasma, which was stored at −80° C.
• 1) 100 μL of acetonitrile was added to 20 μL of plasma sample for pelleting, and it was mixed and centrifuged at 3500×g for 5-20 min. • 2) The treated supernatant solution was taken and subjected to LC/MS/MS to analyze the concentrations of the test compounds. LC/MS/MS analysis instrument: AB Sciex API 4000 Qtrap.
• Liquid phase conditions: Shimadzu LC-20AD pump • Chromatographic column: Waters Xbridge C18 5 μm, 4.6×50 mm, mobile phase: liquid A was 0.1% aqueous formic acid solution, and liquid B was methanol • Flow rate: 1.0 mL/min • Elution time: 0-4.0 min, the eluent was as follows:
The main pharmacokinetic parameters were calculated using WinNonlin 6.1.

[6] = molecular target: T2, p38a (Active p38 alpha Protein) (Homo sapiens, UniProt Q16539); test: Inhibition of p38 enzyme activity (TR-FRET, ULight-MBP); type: biochemical; conditions: 3 nM p38a, 50 μM ATP
T2 construct: purchased R & D systems 5477-KS-010
T2 sequence (Q16539 whole entry): as the sequence (Q16539 whole entry) above
Method: as §1, with “Experimental method for determining the p38 enzyme activity: 3 nM p38a (Active p38 alpha Protein) and compounds diluted in a certain concentration gradient were incubated in 1× enzyme reaction buffer (50 mM HEPES pH 7.5, 1 mM EGTA, 10 mM MgCl2, 2 mM DTT, 0.01% Tween-20) for 1 hour. 50” for “50”, “ULight-MBP” for “ULight-CREBtide”, “50” for “25”, “(ATP 10 mM” for “(ATP”, “Europium-anti-P-MBP)” for “Europium-anti-phospho-CREB)”
as §2, §3, §4

p38-MK2, sequence (Q16539 whole entry): as above
p38-MK2, sequence (P49137 whole entry): as the sequence (P49137 whole entry) above

SMILES	efficacy [1]	safety and tolerability [1]	IC50 [2]	Selectivity ratio (p38 IC50 / p38/MK2 IC50) [2]	IC50 [3]	IC50 [4]	AUC(0-inf) ([5]; 5 mg/kg)	half-life ([5]; 5 mg/kg)	MRT ([5]; 5 mg/kg)	Cmax ([5]; 5 mg/kg)	Tmax ([5]; 5 mg/kg)	IC50 [6]	AUC(0-inf) ([5]; 2 mg/kg)	half-life ([5]; 2 mg/kg)	MRT ([5]; 2 mg/kg)	Cmax ([5]; 2 mg/kg)	Tmax ([5]; 2 mg/kg)
Cc1cnc(-c2ccnc(C(C)(C)O)n2)cc1-n1c(C)cc(OCc2ncc(F)cc2F)c(Cl)c1=O [ATI-450]	outstanding and lasting efficacy	safe and tolerable	–	–	–	–	–	–	–	–	–	–	–	–	–	–	–
[2H]C([2H])(Oc1cc2n(c(=O)c1Cl)-c1c(cnc(-n3cc(F)c(C(C)(C)NC(C)=O)n3)c1F)CCCC2)c1ncc(F)cc1F [Example 6-1, (R)—N-(2-(1-(11-chloro-10-((3,5-difluoropyridin-2-yl)methoxy-d2)-1-fluoro-12-carbonyl-6,7,8,12-tetrahydro-5H-dipyrido[1,2-a:3′,4′-g]azocin-2-yl)-4-fluoro-1H-pyrazol-3-yl)propan-2-yl)acetamide]	–	–	0.1 nM	153	0.16 nM	0.15 nM	14200 ng·h/mL	2.7 h	2.9 h	4180 ng/mL	1 h	15.3 nM	–	–	–	–	–
[2H]C([2H])(Oc1cc2n(c(=O)c1Cl)-c1c(cnc(-c3ccnc(C(C)(C)NC(C)=O)n3)c1F)CCCC2)c1ncc(F)cc1F [Example 7-1, (R)—N-(2-(4-(11-chloro-10-((3,5-difluoropyridin-2-yl)methoxy-d2)-1-fluoro-12-carbonyl-6,7,8,12-tetrahydro-5H-dipyrido[1,2-a:3,4′-g]azocin-2-yl)pyrimidin-2-yl)propan-2-yl)acetamide]	–	–	0.34 nM	144	0.34 nM	0.35 nM	–	–	–	–	–	49.1 nM	7350 ng·h/mL	1.4 h	2.5 h	2160 ng/mL	1 h
[2H]C([2H])(Oc1cc2n(c(=O)c1Cl)-c1c(cnc(-c3ccnc(C(C)(C)O)n3)c1F)CCCC2)c1ncc(F)cc1F [Example 9-1, (R)-11-chloro-10-((3,5-difluoropyridin-2-yl)methoxy-d2)-1-fluoro-2-(2-(2-hydroxypropan-2-yl)pyrimidin-4-yl)-5,6,7,8-tetrahydro-12H-dipyrido[1,2-a:3′4′-g]azocin-12-one]	–	–	0.14 nM	164	0.12 nM	0.1 nM	22000 ng·h/mL	2.5 h	3.8 h	3760 ng/mL	0.5 h	22.9 nM	–	–	–	–	–
[2H]C([2H])(Oc1cc(C)n(-c2cc(-n3cccc(C(C)(C)O)c3=O)ncc2C)c(=O)c1Cl)c1ccc(F)cc1F [Example 14-1, (S)-3″-chloro-4″-((2,4-difluorophenyl)methoxy-d2)-3-(2-hydroxypropan-2-yl)-5′,6″-dimethyl-2H,2″H-[1,2′:4′,1″-terpyridine]-2,2″-dione]	–	–	0.05 nM	102	0.12 nM	0.13 nM	–	–	–	–	–	5.1 nM	–	–	–	–	–
[2H]C([2H])(Oc1cc2n(c(=O)c1Cl)-c1cc(-n3cccc(C(C)(C)O)c3=O)ncc1CCCC2)c1ncc(F)cc1F [Example 15-1, (S)-11-chloro-10-((3,5-difluoropyridin-2-yl)methoxy-d2)-2-(3-(2-hydroxypropan-2-yl)-2-carbonylpyridin-1(2H)-yl)-5,6,7,8-tetrahydro-12H-dipyrido[1,2-a:3′,4′-g]azocin-12-one]	–	–	0.2 nM	268	0.18 nM	0.32 nM	–	–	–	–	–	53.6 nM	–	–	–	–	–

Reference: patent publication US20250066360A1, “PYRIDINE-CONTAINING POLYCYCLIC DERIVATIVE, AND PREPARATION METHOD THEREFOR AND USE THEREOF” (SHANGHAI HANSOH BIOMEDICAL CO., LTD., priority 2022, published 2025)
